Here are results for ten compounds from PubChem BioAssay (NCI).

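1) Cells in 96-well plates. 2) Compound, 48 h, 5 concentrations. 3) Linear interpolation between surrounding doses. 4) Unreached endpoint = highest concentration. Here, GI50 denotes the concentration required for 50% inhibition of growth. TGI marks complete inhibition of growth.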

What all share (experiment): NCI-60 cell line screen, 48 h
The test system of assay [1] is HCT-15 colon.
For assay [2], the system named is DU-145 prostate.
Assay [3] deals with M14 melanoma.
For assay [4], the system named is EKVX NSCLC.
Assay [5] relates to UACC-62 melanoma.
The subject of assay [6] is OVCAR-8 ovarian.
The test system of assay [7] is ACHN renal.
Assay [8] deals with U251 CNS.
Assay [9] concerns COLO 205 colon.
For assay [10], the system named is SW-620 colon.

As to `O=C(Nc1ccc(S(=O)(=O)/N=c2\ncccn2C(=O)C(C(F)(F)F)C(F)(F)F)cc1)C(C(F)(F)F)C(F)(F)F`, the TGI in assay [1], in assay [2], in [3], in assay [4], in assay [5] and in assay [6] was over 100 µM in each case. Besides, the TGI in assay [7], in assay [8] and in assay [9] was over 100 µM throughout.
In the case of `C[C@@H]1CC(=O)C[C@@H]2CC[C@H]3[C@@H]4CC[C@H](OC(=O)c5cccc6cc7ccccc7nc56)[C@H]4CC[C@@H]3[C@H]21`, the TGI stood at 44.2 µM in assay [10]; 36.6 µM in assay [1]; 28.7 µM in assay [2]; 31.6 µM in [3]; 34.7 µM in assay [4]; 28.4 µM in [5]. Besides, the TGI in assay [6] was found to be 38 µM; in [7], 29.3 µM; in assay [8] it was 19.8 µM; in [9], 53.8 µM.
Turning to `C/C(=N\O)c1cccc[n+]1Cc1ccccc1`, the TGI in assay [10], in [1], in assay [2], in assay [3], in assay [4] and in [5] was over 100 µM in each case. Also, the TGI in assay [6], in [7], in assay [8] and in assay [9] was over 100 µM throughout.
`NCCN1C(=O)c2ccccc2C1c1ccc(Cl)cc1` (centres undefined): the TGI in assay [10], in assay [1], in [2], in assay [3], in assay [4] and in [5] was over 100 µM each time. Also, the TGI in assay [6], in assay [7], in [8] and in assay [9] was over 100 µM in each case.
In the case of `COc1ccccc1C(=O)NCC1CCCN2CCCCC12` (centres undefined), the TGI in assay [10], in [1], in assay [2], in assay [3], in [4] and in assay [5] was over 100 µM in each case. Besides, the TGI in assay [6], in assay [7], in assay [8] and in [9] was over 100 µM throughout.
In the case of `O=C(NO)NCCCl`, the TGI in [10], in assay [1], in assay [2], in [3], in assay [4] and in [5] was over 100 µM throughout. Further, the TGI in assay [6], in assay [7], in assay [8] and in assay [9] was over 100 µM throughout.
For the compound `COC(=O)C1(SC)C2CCC3C2CCC31` (centres undefined), the TGI in assay [10], in assay [1], in assay [2], in assay [3], in [4] and in [6] was over 100 µM each time. For the same compound, the TGI in assay [7], in assay [8] and in assay [9] was over 100 µM each time.
Regarding `CCCCCCCCCCCCCC[n+]1ccc(C)cc1`, the GI50 in assay [10] is 0.945 µM; in [1], 4.01 µM; in assay [2], 0.608 µM; in assay [3], 0.345 µM; in [4], 0.296 µM; in assay [5], 1.08 µM. The GI50 in assay [7] was 3.23 µM; in assay [8] it was 0.437 µM; in assay [9], 1.22 µM. The TGI in [10] came to 3.88 µM; in assay [1] it was 22.4 µM; in assay [2], 1.83 µM; in [3], 1.25 µM; in [4], 1.42 µM; in assay [5], 2.57 µM. The values for the TGI in assay [7], in assay [8] and in assay [9] were 10.9 µM, 1.65 µM and 2.67 µM, respectively.
With `COc1cc(-c2c3c(cc4c2OCO4)[C@@H](Nc2ccc(-c4ccc(-c5ccc(N[C@@H]6c7cc8c(cc7C(c7cc(OC)c(O)c(OC)c7)[C@H]7C(=O)OC[C@H]67)OCO8)cc5)cc4)cc2)[C@H]2COC(=O)[C@@H]2C3)cc(OC)c1O` (some centres undefined), the TGI in [10] was 10.8 µM; in assay [1], 4.79 µM; in [2], 4.74 µM; in assay [3] it was 4.11 µM; in assay [4] it was 25.2 µM; in assay [6] it was 3.77 µM. The figures for the TGI in [7], in assay [8] and in [9] were 11.3 µM, 10.1 µM and 3.34 µM, respectively.
For `COc1cc2c(cc1OC)C(=O)/C(=C/c1cc(C)cc(C)c1)C2`, the TGI is over 90.7 µM in [10]; over 47.8 µM in assay [1]; 6.23 µM in assay [2]; over 100 µM in assay [3]; over 100 µM in assay [4]; over 84 µM in assay [5]. Moreover, the TGI was over 100 µM in [7], over 81.8 µM in assay [8] and 0.346 µM in assay [9].
